Test results reported in US20090081758A1, “Chimeric Cytochrome P450 Proteins and Methods of Use” (THE REGENTS OF THE UNIVERSITY OF MICHIGAN, priority 2007, published 2009).

Assays:
PikC-RhFRED [1] = assay: Spectral substrate binding assay, PikC-RhFRED; design: species or system Streptomyces venezuelae; conditions: Type I difference spectra, 1 μM P450, room temperature; read-out: Kd (dissociation constant)
Protocol: (§1) Spectral substrate binding assays were performed using a UV-visible spectrophotometer 300 Bio (Cary) at room temperature by titrating 30 mM substrate DMSO solution (blank DMSO for reference group) into 1 ml of 1 μM P450 sample in 1 μl aliquots, leading to substrate concentration ranging from 30 to 360 μM. The series of Type I difference spectra were used to deduce ΔA (Apeak(389)−Atrough(424)). Then, the data were fit to Michaelis-Menten equation to obtain the dissociation constant Kd. As mentioned above, one benefit of the fusion protein arrangement is the facility of the covalent linkage to stabilize productive interactions between the P450 and redox partner, thus enhancing electron transfer efficiency. […] To test whether this also applies to PikC-RhFRED, we first determined the substrate binding affinity of YC-17 and narbomycin toward both PikC and PikC-RhFRED.

wt-PikC = wt-PikC (Streptomyces venezuelae, UniProt O87605); assay: Spectral substrate binding assay, wt-PikC; conditions: Type I difference spectra, 1 μM P450, room temperature; read-out: Kd (dissociation constant)
wt-PikC, sequence (O87605 whole entry): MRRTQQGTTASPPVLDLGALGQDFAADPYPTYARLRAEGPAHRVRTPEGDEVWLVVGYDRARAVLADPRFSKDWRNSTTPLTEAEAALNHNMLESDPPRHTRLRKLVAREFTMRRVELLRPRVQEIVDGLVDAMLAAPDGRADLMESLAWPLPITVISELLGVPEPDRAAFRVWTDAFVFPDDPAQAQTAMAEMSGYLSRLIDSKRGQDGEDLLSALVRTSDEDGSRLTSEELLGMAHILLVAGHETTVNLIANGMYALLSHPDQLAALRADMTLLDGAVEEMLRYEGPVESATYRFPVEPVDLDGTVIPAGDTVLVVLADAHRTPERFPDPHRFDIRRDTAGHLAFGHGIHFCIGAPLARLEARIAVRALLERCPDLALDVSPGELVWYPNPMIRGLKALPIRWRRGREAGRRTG
Protocol: as §1

PikC-RhFRED [2] = assay: Steady-state kinetics, substrate consumption by HPLC, PikC-RhFRED; assay type: biochemical, Streptomyces venezuelae; conditions: kcat/Km of PikC-RhFRED relative to wt-PikC with Fdr and Fdx
Protocol: Subsequently, the kinetic parameters of PikC-RhFRED were compared with those of the PikC-Fdr-Fdx three component system. […] Moreover, the solubility limitation (less than 500 μM) of macrolides in aqueous solution prevented us from deducing the K, value. Therefore, the apparent specificity constants (kcat/Km) were determined by fitting the low-concentration data to the linear region of a Michaelis-Menten curve. […] In contrast, the specificity constants of wt-PikC partnered by Fdr and Fdx were 0.24 μM^−1·min^−1 for YC-17 and 0.31 μM^−1·min^−1 for narbomycin. It is evident that the fusion enhanced the catalytic activity approximately 4 fold for both YC-17 and narbomycin. […] The presumed de-coupling between electron transfer and hydroxylation may account for this difference.
The standard reaction contains 100 nM of PikC-RhFRED (or 150 nM of wt-PikC with 3.5 μM spinach ferredoxin and 0.1 U/ml spinach ferredoxin-NADP^+ reductase), 20˜250 μM substrate in 200 μl of desalting buffer (50 mM NaH2PO4, pH 7.3, 1 mM EDTA, 0.2 mM DTE, 10% glycerol). After pre-incubation at 30° C. for 5 min, the reaction was initiated by adding 1 μl of 50 mM NADPH and 50 μl aliquots were taken at 0 s, 20 s, and 40 s (or Os, 30 s, and 60 s when substrate concentration greater than 100 μM) to thoroughly mix with 2×100 μl of chloroform. […]

SMILES | Kd (PikC-RhFRED [1]) [µM] | Kd (wt-PikC) [µM] | enhancement of catalytic activity by fusion (PikC-RhFRED vs wt-PikC) (PikC-RhFRED [2])
CC[C@H]1OC(=O)[C@H](C)[C@@H](O[C@@H]2O[C@H](C)C[C@H](N(C)C)[C@H]2O)[C@@H](C)C[C@@H](C)C(=O)/C=C/[C@H]1C [YC-17] | 92.6 ± 0.5 | 113 ± 1.9 | approximately 4 fold
CC[C@H]1OC(=O)[C@H](C)C(=O)[C@H](C)[C@@H](O[C@@H]2O[C@H](C)C[C@H](N(C)C)[C@H]2O)[C@@H](C)C[C@@H](C)C(=O)/C=C/[C@H]1C [narbomycin] | 215 ± 4.2 | 288 ± 7.1 | approximately 4 fold
